From patent publication US20030113810A1, “Novel assay” (priority 2000, published 2003)
Where two headings read alike, the source gives them in different places.

Experiments:
[1] = test system: isoprenaline-stimulated adenylate cyclase activity in rat primary adipocytes; settings: 10 minutes at 37° C., FIG. 11
Experimental: Isoprenaline stimulates adenylate cyclase activity and subsequently the process of lipolysis following activation of β-adrenoceptors and G,a in adipocytes.
A reaction mixture of 500 μl was used in a 1.5 ml eppendorf tube. The reaction was started by the addition of 100 μl of adipocytes to a 400 μl volume of Krebs buffer containing isoprenaline and test compound. Following the addition of the adipocytes the reaction tube was incubated at 37° C. for 10 minutes. The reaction was stopped with the addition of 500 μl of a stop mixture containing methanol (1 part), chloroform (2 parts) and 0.1N HCl (0.1 part). Following the addition of the stop mixture each tube was vortexed and then centifuged at 5000 rpm for 5 minutes. 300 μl of the supernatent was removed and stored at −20° C. The levels of cAMP in each samples were determined using an ELISA kit from R&D systems (DE0355).

[2] = biological target: T1, human GPR41 (Homo sapiens, UniProt O14843)
T1 sequence (O14843 1-346): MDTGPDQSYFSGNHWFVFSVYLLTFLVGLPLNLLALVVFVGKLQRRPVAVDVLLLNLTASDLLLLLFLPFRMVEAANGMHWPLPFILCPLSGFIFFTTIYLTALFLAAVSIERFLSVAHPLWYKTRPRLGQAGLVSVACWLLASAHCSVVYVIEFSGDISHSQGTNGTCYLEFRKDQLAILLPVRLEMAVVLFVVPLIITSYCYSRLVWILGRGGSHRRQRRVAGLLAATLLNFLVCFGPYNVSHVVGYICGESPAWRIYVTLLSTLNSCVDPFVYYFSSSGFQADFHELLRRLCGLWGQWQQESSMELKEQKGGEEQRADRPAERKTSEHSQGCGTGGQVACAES
Experimental: HEK293T cells (HEK293 cells stably expressing the SV40 large T-antigen) were maintained in DMEM containing 10% (v/v) foetal calf serum and 2 mM glutamine. Cells were seeded in 60 mm culture dishes and grown to 60-80% confluency (18-24 h) prior to transfection with pCDNA3 containing the relevant DNA species using Lipofectamine reagent. For transfection, 3 μg of DNA was mixed with 10 μl of Lipofectamine in 0.2 ml of Opti-MEM (Life Technologies Inc.) and was incubated at room temperature for 30 min prior to the addition of 1.6 ml of Opti-MEM. Cells were exposed to the Lipofectamine/DNA mixture for 5 h and 2 ml of 20% (v/v) newborn calf serum in DMEM was then added. Cells were harvested 48-72 h after transfection.
Plasma membrane-containing P2 particulate fractions were prepared from cell pastes frozen at −80° C. after harvest. All procedures were carried out at 4° C. Cell pellets were resuspended in 1 ml of 10 mM Tris-HCl and 0.1 mM EDTA, pH 7.5 (buffer A) and by homogenisation for 20 s with a polytron homogeniser followed by passage (5 times) through a 25-guage needle. Cell lysates were centrifuged at 1,000 g for 10 min in a microcentrifuge to pellet the nuclei and unbroken cells and P2 particulate fractions were recovered by microcentrifugation at 16,000 g for 30 min. P2 particulate fractions were resuspended in buffer A and stored at −80° C. until required. Protein concentrations were determined using the bicinchoninic acid (BCA) procedure (4) using BSA as a standard.
Assays were performed in 96-well format using a method modified from Wieland and Jakobs, 1994. Membranes (10 μg per point) were diluted to 0.083 mg/ml in assay buffer (20 mM HEPES, 100 mM NaCl, 10 mM MgCl2, pH7.4) supplemented with saponin (10 mg/l) and pre-incubated with 40 μM GDP. […] Non-specific binding was determined by the inclusion of 0.6 mM GTP. […] Plates were centrifuged at 1500 g for 5 min and bound [^35S]GTPγS was determined by scintillation counting on a Wallac 1450 microbeta Trilux scintillation counter.

[3] = biological target: T2, rGPR41 (Rattus norvegicus, UniProt B2GV46); experiment: Yeast FUS1-lacZ/FUS1-HIS3 reporter assay, rGPR41 in S. cerevisiae MMY22 (Gpa1/Gαo), FDG substrate; format: cell-based; set-up: expressed in transfected cells; host or cells: S. cerevisiae MMY22 (A1, A5; Gpa1/Gαo integrated) or MMY11 + pRS314-Gpa1/Gαo (A4), transformed with p426GPD-rGPR41
T2 sequence (B2GV46 1-319): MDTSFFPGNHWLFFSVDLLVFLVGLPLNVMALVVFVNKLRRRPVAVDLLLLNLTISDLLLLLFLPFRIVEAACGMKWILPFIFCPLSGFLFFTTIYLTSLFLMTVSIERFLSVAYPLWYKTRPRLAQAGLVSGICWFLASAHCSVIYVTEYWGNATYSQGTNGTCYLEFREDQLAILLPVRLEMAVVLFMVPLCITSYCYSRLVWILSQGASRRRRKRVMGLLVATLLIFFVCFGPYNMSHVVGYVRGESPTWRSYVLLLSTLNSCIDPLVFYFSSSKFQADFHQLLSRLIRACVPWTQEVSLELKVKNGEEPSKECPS
Experimental: A study was carried out of the function of rGPR41 following expression in S. cerevisiae MMY22, which is a derivative of S. cerevisiae MMY11 containing a copy of the gene encoding the Gpa1/Gαo transplant chimera described above (in which the 5 C-terminal amino acids of Gpa1 are replaced with the 5 C-terminal amino acids of Gαo) integrated into the genome. To do this, a cassette comprising the GPA1 promoter, nucleotide sequence encoding Gpa1/Gαo, and the terminator was sub-cloned from pRS314-Gpa1/Gαo into the yeast integrating plasmid pRS304 (Sikorski and Hieter, 1989). The resulting plasmid pRS304-Gpa1/Gαo was transformed into MMY11 and integrated into the trp1 locus creating MMY22.
The rGPR41 expression construct described above, p462GPD-rGPR41 was introduced into MMY22 by transformation as described above. Four separate transformants were tested for reporter gene activation in response to propionate. Assays for FUS1-lacZ and FUS1-HIS3 induction were performed as described, except the β-galactosidase (lacZ) substrate fluorescein di-β-D-galactopyranoside (FDG) was used in place of CPRG, and 3-aminotriazole concentration was 5 mM. Also, black-walled 96-well microtitre plates were used, and fluorescence resulting from degradation of FDG to fluorescein due to β-galactosidase was determined using a Spectrofluor microtitre plate reader (Tecan)(excitation wavelength: 485 nm; emmision wavelength: 535 nm).
A series of carboxylic acids and other compounds related to propionate were tested for the ability to activate rGPR41. Experiments were performed as described above, using yeast cells of strain MMY22 transformed with rGPR41 expression plasmid p462GPD-rGPR41, except that the agonist propionate was replaced with one of a series of other compounds, which are listed in table 2 below.
In vivo assays of reporter gene induction were carried out by suspending MMY11 cells transformed as described above to a density of 0.02 OD600/ml in 200 μl SC-glucose (2%) medium lacking tryptophan, uracil and histidine. This medium was supplemented with 10 mM 3-aminotriazole and the β-galactosidase (lacZ) substrate chlorophenolred-β-D-galactopyranoside (CPRG; Boehringer Mannheim) to a concentration of 0.1 mg/ml. Additionally the medium was supplemented with various concentrations of the agonist ligand, propionate (sodium propionate, pH 7.0). To visualise the yellow to red colour change reaction occurring on degradation of CPRG due to β-galactosidase, the medium was buffered to pH 7 with 0.1 M sodium phosphate. The assay was conducted in flat-bottomed sterile 96-well microtitre plates. Plates were incubated for 24 hours at 30° C. without agitation, and absorbance at 570 nm was determined using a Spectrofluor microtitre plate reader (Tecan).

[4] = biological target: T2, rGPR41; experiment: Yeast reporter gene induction, MMY11 cells with p426GPD-rGPR41 and pRS314-Gpa1/Gαo, CPRG substrate; format: cell-based; settings: MMY11, Gpa1/Gαo transplant; FIG. 6
From the text: Significant absorbance at 570 nm, corresponding to induction of FUS1-lacZ and FUS1-HIS3 reporter genes, was detected for MMY11 cells containing p426GPD-rGPR41 in combination with pRS314-Gpa1/Gαo. These cells express rGPR41 in combination with a Gα subunit identical to Gpa1 but in which the 5 C-terminal amino acids are replaced with the 5 C-terminal amino acids of the mammalian Gα subunit, Gαo. This response is dependant on the presence of the agonist ligand propionate since no induction is detected in the absence of propionate (FIG. 6). […] Of the other Gα subunits tested, the pRS314-Gpa1/Gα12 and pRS314-Gpa1/Gα13 transplants supported weak rGPR41 coupling detectable after 48 hrs incubation (data not shown), and with no other Gα subunit could ligand responses of rGPR41 be detected.
The yeast strain MMY11 has been described previously (Olesnicky et al, 1999). […]
In vivo assays of reporter gene induction were carried out by suspending MMY11 cells transformed as described above to a density of 0.02 OD600/ml in 200 μl SC-glucose (2%) medium lacking tryptophan, uracil and histidine. […] Plates were incubated for 24 hours at 30° C. without agitation, and absorbance at 570 nm was determined using a Spectrofluor microtitre plate reader (Tecan).

[5] = yeast MMY22 with p462GPD-rGPR41, FDG fluorescence, compounds as salt solutions buffered to pH 7.0, read-out: Agonism @ rGPR41 Approx. EC50

Structure (SMILES) | isoprenaline-amplified cAMP levels [1] | stimulation of [35S]GTPγS binding [2] | EC50 [3, 5] [µM] | induction of FUS1-lacZ and FUS1-HIS3 reporter genes (absorbance at 570 nm) [4] | stimulation of [35S]GTPγS binding ([2]; membranes of HEK293T cells, human GPR41 + Go1α, FIG. 2-4) | fluorescence, activation of the pheromone response pathway by rGPR41 ([3]; MMY22, four transformants, FIG. 7) | EC50 ([3]; yeast MMY22, text of Example 8, read-out: EC50 value at rGPR41) [µM]
CC(=O)O [Acetate] | reduction of isoprenaline-amplified cAMP levels | stimulation of [^35S]GTPγS binding | ~1000 | – | – | – | –
CCC(=O)O [Propionate] | – | – | ~5 | can be activated by propionate | most potent and efficacious | dependent on the concentration of propionate | 5
